Measurements published in ChEMBL document CHEMBL4265902, “Design and synthesis of cyclopropane-based conformationally restricted GABA analogues as selective inhibitors for betaine/GABA transporter 1” (Bioorg Med Chem Lett, 2018).

Columns and labels:
[1] = target: T1, Sodium- and chloride-dependent betaine transporter (Homo sapiens) (UniProt P48065); experiment: Inhibition of human BGT1 expressed in CHO cells assessed as reduction in [3H]GABA uptake at 100 uM after 20 mins by liquid scintillation counting analysis relative to control; type: cell-based
T1 sequence (whole entry): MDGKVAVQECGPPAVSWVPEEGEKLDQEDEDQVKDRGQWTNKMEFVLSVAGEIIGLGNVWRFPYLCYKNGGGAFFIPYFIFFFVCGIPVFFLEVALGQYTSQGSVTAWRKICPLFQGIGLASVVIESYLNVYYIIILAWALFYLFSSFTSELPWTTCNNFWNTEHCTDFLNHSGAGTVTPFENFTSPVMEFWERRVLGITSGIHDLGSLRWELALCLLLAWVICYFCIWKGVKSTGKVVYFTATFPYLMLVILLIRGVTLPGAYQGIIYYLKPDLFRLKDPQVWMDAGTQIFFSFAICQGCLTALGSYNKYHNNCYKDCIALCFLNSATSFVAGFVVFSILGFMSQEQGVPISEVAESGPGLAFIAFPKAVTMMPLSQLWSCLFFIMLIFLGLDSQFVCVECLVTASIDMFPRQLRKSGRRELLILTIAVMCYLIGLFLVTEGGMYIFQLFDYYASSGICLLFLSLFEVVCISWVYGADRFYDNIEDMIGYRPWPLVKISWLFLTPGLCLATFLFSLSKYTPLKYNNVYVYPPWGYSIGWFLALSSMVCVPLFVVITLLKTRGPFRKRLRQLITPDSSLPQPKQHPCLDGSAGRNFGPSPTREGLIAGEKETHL

[2] = species on record: Homo sapiens; experiment: Selectivity for human BGT1 over human GAT3
[3] = target: T2, Sodium- and chloride-dependent GABA transporter 2 (Homo sapiens) (UniProt Q9NSD5); experiment: Inhibition of human GAT2 expressed in CHO cells assessed as reduction in [3H]GABA uptake at 100 uM after 20 mins by liquid scintillation counting analysis relative to control; type: cell-based
T2 sequence (whole entry): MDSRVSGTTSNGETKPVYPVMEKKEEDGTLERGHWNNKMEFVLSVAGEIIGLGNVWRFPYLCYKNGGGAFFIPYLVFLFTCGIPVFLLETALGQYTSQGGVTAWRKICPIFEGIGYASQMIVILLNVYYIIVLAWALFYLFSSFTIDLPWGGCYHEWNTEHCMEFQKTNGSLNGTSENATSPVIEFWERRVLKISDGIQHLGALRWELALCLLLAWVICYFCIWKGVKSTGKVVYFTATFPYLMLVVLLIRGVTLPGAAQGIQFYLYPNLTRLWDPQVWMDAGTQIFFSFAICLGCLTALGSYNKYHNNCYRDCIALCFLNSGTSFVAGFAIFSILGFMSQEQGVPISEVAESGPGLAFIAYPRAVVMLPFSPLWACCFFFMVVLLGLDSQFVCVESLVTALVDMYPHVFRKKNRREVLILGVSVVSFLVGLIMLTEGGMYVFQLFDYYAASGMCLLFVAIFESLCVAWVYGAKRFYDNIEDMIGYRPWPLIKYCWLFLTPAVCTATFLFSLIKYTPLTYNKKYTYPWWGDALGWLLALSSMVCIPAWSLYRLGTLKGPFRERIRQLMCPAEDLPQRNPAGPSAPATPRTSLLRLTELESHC

[4] = target: T3, Sodium- and chloride-dependent GABA transporter 3 (Homo sapiens) (UniProt P48066); experiment: Inhibition of human GAT3 expressed in CHO cells assessed as reduction in [3H]GABA uptake at 100 uM after 20 mins by liquid scintillation counting analysis relative to control; type: cell-based
T3 sequence (whole entry): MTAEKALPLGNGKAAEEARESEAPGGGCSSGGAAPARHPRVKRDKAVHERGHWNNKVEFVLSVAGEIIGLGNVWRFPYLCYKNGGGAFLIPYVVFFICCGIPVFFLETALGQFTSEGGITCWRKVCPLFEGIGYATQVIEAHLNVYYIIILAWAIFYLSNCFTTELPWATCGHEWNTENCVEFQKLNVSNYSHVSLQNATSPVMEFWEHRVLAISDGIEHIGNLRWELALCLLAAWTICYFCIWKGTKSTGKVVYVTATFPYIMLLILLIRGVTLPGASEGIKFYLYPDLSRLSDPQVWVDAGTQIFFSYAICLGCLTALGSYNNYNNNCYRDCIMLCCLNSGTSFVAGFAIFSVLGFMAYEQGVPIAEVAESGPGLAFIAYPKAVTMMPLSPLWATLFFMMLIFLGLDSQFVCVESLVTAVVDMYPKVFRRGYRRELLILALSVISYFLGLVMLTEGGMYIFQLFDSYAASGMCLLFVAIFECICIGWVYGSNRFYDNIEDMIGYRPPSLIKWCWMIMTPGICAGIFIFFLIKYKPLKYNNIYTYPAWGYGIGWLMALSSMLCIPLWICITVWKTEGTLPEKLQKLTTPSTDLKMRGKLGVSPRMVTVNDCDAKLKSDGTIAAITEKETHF

[5] = target: Sodium- and chloride-dependent GABA transporter 1 (Homo sapiens) (UniProt P30531); experiment: Inhibition of human GAT1 expressed in CHO cells assessed as reduction in [3H]GABA uptake at 100 uM after 20 mins by liquid scintillation counting analysis relative to control; type: cell-based
Sodium- and chloride-dependent GABA transporter 1 (Homo sapiens), sequence (P30531 whole entry, looked up): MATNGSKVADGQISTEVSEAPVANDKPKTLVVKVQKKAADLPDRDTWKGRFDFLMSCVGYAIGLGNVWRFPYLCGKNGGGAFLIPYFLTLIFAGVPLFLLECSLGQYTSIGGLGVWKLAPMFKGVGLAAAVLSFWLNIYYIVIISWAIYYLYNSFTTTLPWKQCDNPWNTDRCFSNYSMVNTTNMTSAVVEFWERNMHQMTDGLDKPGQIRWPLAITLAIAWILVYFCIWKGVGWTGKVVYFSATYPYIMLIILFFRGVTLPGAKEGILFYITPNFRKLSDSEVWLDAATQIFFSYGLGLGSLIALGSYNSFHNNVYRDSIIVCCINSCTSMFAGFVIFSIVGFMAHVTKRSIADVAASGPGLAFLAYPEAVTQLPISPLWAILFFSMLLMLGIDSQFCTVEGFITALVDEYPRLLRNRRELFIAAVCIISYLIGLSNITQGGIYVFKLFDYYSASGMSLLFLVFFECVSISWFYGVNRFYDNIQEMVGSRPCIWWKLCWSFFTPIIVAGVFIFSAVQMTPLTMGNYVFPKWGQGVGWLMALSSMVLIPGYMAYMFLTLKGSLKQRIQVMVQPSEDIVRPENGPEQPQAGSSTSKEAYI

inhibition [1]	Selectivity ratio [2]	inhibition [3]	inhibition [4]	inhibition [5]	Structure (SMILES)
44.7%	5 to 7	20.1%	8.3%	–	N[C@@H]1C[C@H]1[C@@H](O)C(=O)O
62.7%	5 to 7	-5.2%	9.3%	4.3%	C[C@@H](C(=O)O)[C@@H]1C[C@H]1N
-1.3%	–	-2.4%	–	12.2%	CC[C@H](C(=O)O)[C@@H]1C[C@H]1N
–	–	-9.5%	-3.6%	–	C=C[C@@H](C(=O)O)[C@@H]1C[C@H]1N
57.3%	–	–	25.6%	0%	C[C@H](C(=O)O)[C@@H]1C[C@H]1N
22.2%	–	45.3%	5.2%	–	N[C@@H]1C[C@H]1[C@@H](F)C(=O)O
13.4%	–	3.3%	-2.4%	8.6%	CC[C@@H](C(=O)O)[C@@H]1C[C@H]1N

Structure (SMILES)	inhibition [1]	Selectivity ratio [2]	inhibition [3]	inhibition [4]	inhibition [5]
[N-]=[N+]=N[C@@H](C(=O)O)[C@@H]1C[C@H]1N	57.2%	5 to 7	6.8%	11.8%	–
